Where a name gives a salt, the structure may show the parent alone.
Key:
[1] = test system: Helminthosporium oryzae; assay: Mycelial growth test; conditions: for inhibition at 5 ppm / inhibition at 10 ppm / inhibition at 20 ppm / inhibition at 40 ppm: Bipolaris oryzae, 72 h; for inhibition at 5 ppm: read-out: Percent Fungus Growth Inhibition, HO, 5 ppm, 72 hours; for inhibition at 10 ppm: read-out: Percent Fungus Growth Inhibition, HO, 10 ppm, 72 hours; for inhibition at 20 ppm: read-out: Percent Fungus Growth Inhibition, HO, 20 ppm, 72 hours; for inhibition at 40 ppm: read-out: Percent Fungus Growth Inhibition, HO, 40 ppm, 72 hours; for Percent Fungus Growth Inhibition: HO, 72 hours, hydrochloride
Method: HO = Helminthosporium oryzae
Aliquots of previously prepared solutions of active ingredient in acetone were added to tubes containing 20 ml of sterile, melted potato dextrose agar that had been cooled to 50° C. to provide mixtures of 40, 20, 10, 5 and 2.5 ppm. The tubes were shaken to ensure thorough mixing of the chemical with the agar, and the mixture poured into petri dishes having 4 quadrants to solidify. Each quadrant was inoculated with a 4 mm diameter disc of agar containing mycelium of the test fungi and incubated at 25° C. for 72 hours during which the samples were alternately exposed to light for 12 hours and to darkness for 12 hours. Growth was measured at the end of the incubation period by measuring the diameter of each fungus colony. Two measurements of the diameter, perpendicular to each other, were taken and the values averaged. Data are reported as percent inhibition (%I) by the following formula: [formula] Captan and chlorothalonil were used as standards for comparison.

[2] = test system: Phytophthora infestans; assay: whole plant or invertebrate; assay type: in vivo; conditions: for pest or weed control at 150 ppm: Phytophthora infestans, in Solanum lycopersicum, foliar, read-out: Percent Disease Control, foliar, tomato late blight, 150 ppm, protective

SMILES	inhibition at 5 ppm [1]	inhibition at 10 ppm [1]	inhibition at 20 ppm [1]	inhibition at 40 ppm [1]	pest or weed control at 150 ppm [2]	Percent Fungus Growth Inhibition ([1]; 5 ppm)	Percent Fungus Growth Inhibition ([1]; 10 ppm)	Percent Fungus Growth Inhibition ([1]; 20 ppm)	Percent Fungus Growth Inhibition ([1]; 40 ppm)	Percent Disease Control, foliar, tomato late blight ([2]; 150 ppm, protective, hydrochloride)
O=c1c(Cl)nsnc1Oc1c(Cl)c(Cl)c(Cl)c(Cl)c1Cl [Compound 31, 3-chloro-5-(pentachlorophenoxy)-4H--1,2,6-thiadiazine-4-one]	57%	86%	57%	100%	0%	–	–	–	–	–
Nc1ccc(Oc2nsnc(Cl)c2=O)cc1 [Compound 27, 5-(4-aminophenoxy)-3-chloro-4H--1,2,6-thiadiazine-4-one hydrochloride]	–	–	–	–	–	0%	21%	43%	57%	98%
Cc1ccc(Oc2nsnc(Cl)c2=O)c(C)c1 [Compound 23, 3-chloro-5-(2,4-dimethylphenoxy)-4H--1,2,6-thiadiazin-4-one]	100%	100%	100%	100%	0%	–	–	–	–	–
COc1cc(Oc2nsnc(Cl)c2=O)cc(OC)c1C(C)=O [Compound 61, 3-[(4-acetyl-3,5-dimethoxy)-phenoxy]-5-chloro-4H--1,2,6-thiadiazin-4-one]	13%	33%	100%	100%	0%	–	–	–	–	–
Cc1ccc(Oc2nsnc(Cl)c2=O)c(Br)c1 [Compound 57, 3-[(2-bromo-4-methyl)-phenoxy]-5-chloro-4H--1,2,6-thiadiazin-4-one]	100%	100%	100%	100%	0%	–	–	–	–	–
CC(=O)Nc1ccc(Oc2nsnc(Cl)c2=O)cc1 [Compound 8, 5-(4-acetylaminophenoxy)-3-chloro-4H--1,2,6-thiadiazin-4-one]	24%	33%	0%	81%	90%	–	–	–	–	–
CSc1ccc(Oc2nsnc(Cl)c2=O)cc1 [Compound 39, 3-chloro-5-[(4-methylthio)phenoxy]-4H-1,2,6,-thiadiazin-4-one]	73%	87%	100%	80%	0%	–	–	–	–	–
O=C(O)c1ccc(Oc2nsnc(Cl)c2=O)cc1 [Compound 50, 3-(4-carboxyphenoxy)-5-chloro-4H--1,2,6-thiadiazin-4-one]	75%	38%	100%	100%	0%	–	–	–	–	–
CNC(=O)Nc1ccc(Oc2nsnc(Cl)c2=O)cc1 [Compound 28, 3-chloro-5-[4-(3-methylureido)-phenoxy]-4H--1,2,6-thiadiazin-4-one]	29%	29%	21%	64%	90%	–	–	–	–	–
CC(=O)Nc1cccc(Oc2nsnc(Cl)c2=O)c1 [Compound 42, 3-[(3-N--acetylamino)-phenoxy]-5-chloro-4H--1,2,6-thiadiazin-4-one]	23%	38%	100%	100%	0%	–	–	–	–	–
O=c1c(Cl)nsnc1Oc1c(Cl)cccc1Cl [Compound 18, 3-chloro-5-(2,6-dichlorophenoxy)-4H--1,2,6-thiadiazin-4-one]	86%	86%	100%	100%	50%	–	–	–	–	–
Cc1cc(Cl)c(Oc2nsnc(Cl)c2=O)cc1C [Compound 58, 3-chloro-5-[(2-chloro-4,5-dimethyl)phenoxy]-4H--1,2,6-thiadiazin-4-one]	54%	54%	69%	69%	0%	–	–	–	–	–
O=c1c(Cl)nsnc1Oc1cccc(Cl)c1Cl [Compound 19, 3-chloro-5-(2,3-dichlorophenoxy)-4H--1,2,6-thiadiazin-4-one]	100%	90%	100%	100%	0%	–	–	–	–	–
O=c1c(Cl)nsnc1Oc1ccc(Cl)cc1 [Compound 12, 3-chloro-5-(4-chlorophenoxy)-4H--1,2,6-thiadiazin-4-one]	59%	59%	100%	100%	100%	–	–	–	–	–
O=c1c(Cl)nsnc1Oc1ccc(O)cc1 [Compound 35, 3-chloro-5-(4-hydroxyphenoxy)-4H-1,2,6-thiadiazin-4-one]	83%	100%	89%	100%	100%	–	–	–	–	–
O=C(O)Cc1ccccc1Oc1nsnc(Cl)c1=O [Compound 45, 3-(2-carboxymethylphenoxy)-5-chloro-4H--1,2,6-thiadiazin-4-one]	0%	0%	63%	100%	0%	–	–	–	–	–
CCCCOc1ccc(Oc2nsnc(Cl)c2=O)cc1 [Compound 6, 3-chloro-5-(4-n-butoxyphenoxy)-4H--1,2,6-thiadiazin-4-one]	0%	0%	0%	48%	0%	–	–	–	–	–
N#Cc1ccc(Oc2nsnc(Cl)c2=O)cc1 [Compound 10, 3-chloro-5-(4-cyanophenoxy)-4H--1,2,6-thiadiazin-4-one]	57%	52%	100%	100%	100%	–	–	–	–	–
Cc1cc(Oc2nsnc(Cl)c2=O)ccc1Cl [Compound 54, 3-chloro-5-(4-chloro-3-methylphenoxy)-4H--1,2,6-thiadiazin-4-one]	43%	91%	73%	100%	0%	–	–	–	–	–
C[S+]([O-])c1ccc(Oc2nsnc(Cl)c2=O)cc1 (centres unmarked) [Compound 40, 3-chloro-5-[(4-methylsulfinyl)phenoxy]-4H-1,2,6,-thiadiazin-4-one]	40%	60%	87%	100%	75%	–	–	–	–	–
O=c1c(Cl)nsnc1Oc1ccc(Cl)cc1Cl [Compound 17, 3-chloro-5-(2,4-dichlorophenoxy)-4H--1,2,6-thiadiazin-4-one]	100%	100%	100%	100%	100%	–	–	–	–	–
O=c1c(Cl)nsnc1Oc1cc(Cl)cc(Cl)c1 [Compound 20, 3-chloro-5-(3,5-dichlorophenoxy)-4H--1,2,6-thiadiazin-4-one]	100%	100%	100%	100%	0%	–	–	–	–	–
